# Reference: patent US7883715B2, “Pesticide compositions containing dicarboxylic acids” (Monsanto Technology LLC, priority 2002, dated 2011)
# Like-named read-outs stand apart in the source and are kept apart here.
# Tests used:
# [1] = test system: ABUTH; assay: Greenhouse herbicidal effectiveness, ABUTH; assay type: in vivo, velvetleaf; settings: for % inhibition ABUTH (14 DAT) / % inhibition ABUTH (20 DAT): oxalate/oxalic acid alone, Table 44A; for efficacy ABUTH: Table 19A, 16 days after treatment; for inhibition at 75 g/ha / inhibition at 100 g/ha / inhibition at 150 g/ha / inhibition at 200 g/ha: Abutilon theophrasti, 408 h, read-out: % inhibition ABUTH, Table 19B, 17 days after treatment; for inhibition at 75 g/ha: 75 g a.e./ha; for inhibition at 150 g/ha: 150 g a.e./ha
# From the text: (§1) The following greenhouse testing procedure was used for evaluating compositions of the Examples to determine herbicidal effectiveness, except where otherwise indicated.
# (§2) Seeds of the plant species indicated were planted in 88 mm square pots in a soil mix which was previously sterilized and prefertilized with a 14-14-14 NPK slow release fertilizer at a rate of 3.6 kg/m3. The pots were placed in a greenhouse with sub-irrigation. About one week after emergence, seedlings were thinned as needed, including removal of any unhealthy or abnormal plants, to create a uniform series of test pots.
# (§3) The plants were maintained for the duration of the test in the greenhouse where they received a minimum of 14 hours of light per day. […] Exposure temperatures were not precisely controlled but averaged about 29° C. during the day and about 21° C. during the night. Plants were sub-irrigated throughout the test to ensure adequate soil moisture levels.
# (§4) Pots were assigned to different treatments in a fully randomized experimental design with 6 replications. A set of pots was left untreated as a reference against which affects of the treatments could later be evaluated.
# (§5) Application of glyphosate compositions was made by spraying with a track sprayer fitted with a 9501E nozzle calibrated to deliver a spray volume of 93 liters per hectare (l/ha) at a pressure of 165 kilopascals (kPa). After treatment, pots were returned to the greenhouse until ready for evaluation.
# (§6) Treatments were made using dilute aqueous compositions. These could be prepared as spray compositions directly from their ingredients, or by dilution with water of preformulated concentrate compositions.
# (§7) For evaluation of herbicidal effectiveness, all plants in the test were examined by a single practiced technician, who recorded percent control, a visual measurement of the effectiveness of each treatment by comparison with untreated plants. […] The reported % control values represent the average for all replicates of each treatment.
# [2] = test system: TRZVX; assay: Greenhouse herbicidal effectiveness, TRZVX; assay type: in vivo, wheat; settings: Table 19A, 16 days after treatment
# From the text: as §1, §2, §3, §4, §5, §6, §7
# [3] = test system: ECHCF; assay: Greenhouse herbicidal effectiveness, ECHCF; assay type: in vivo, Japanese millet, barnyardgrass; settings: for efficacy ECHCF: Table 19A, 16 days after treatment; for inhibition at 75 g/ha / inhibition at 100 g/ha / inhibition at 150 g/ha / inhibition at 200 g/ha: 408 h, read-out: % inhibition ECHCF, Table 19B, 17 days after treatment; for inhibition at 75 g/ha: 75 g a.e./ha; for inhibition at 150 g/ha: 150 g a.e./ha
# From the text: as §1, §2, §3, §4, §5, §6, §7
# [4] = 30 g a.e./ha, tank mix OTH1 1 % v/v
# [5] = 70 g a.e./ha, tank mix OTH1 1 % v/v
# [6] = 100 g a.e./ha, tank mix OTH1 1 % v/v
# [7] = 200 g a.e./ha, tank mix OTH1 1 % v/v
# [8] = 100 g a.e./ha, no OTH22, no OTH1
# [9] = 200 g a.e./ha, no OTH22, no OTH1
structure (smiles),measurement,setting,value
N.N.O=C(O)C(=O)O [OTH1],% inhibition ABUTH (14 DAT),[1]; 2 g a.e./ha,"0, 0, 0, 0%"
same,% inhibition ABUTH (20 DAT),[1]; 2 g a.e./ha,"0, 0, 0, 0%"
same,% inhibition ABUTH (14 DAT),[1]; 3 g a.e./ha,"0, 0, 0, 0%"
same,% inhibition ABUTH (20 DAT),[1]; 3 g a.e./ha,"0, 0, 0, 0%"
same,% inhibition ABUTH (14 DAT),[1]; 4 g a.e./ha,"0, 0, 0, 0%"
same,% inhibition ABUTH (20 DAT),[1]; 4 g a.e./ha,"0, 0, 0, 0%"
same,% inhibition ABUTH (14 DAT),[1]; 5 g a.e./ha,"0, 0, 0, 0%"
same,% inhibition ABUTH (20 DAT),[1]; 5 g a.e./ha,"0, 0, 0, 0%"
c1cc[n+]2c(c1)-c1cccc[n+]1CC2 [diquat],efficacy TRZVX,"[2]; 30 g a.e./ha, no OTH1",3
same,efficacy TRZVX,[2]; [4],14
same,efficacy TRZVX,"[2]; 70 g a.e./ha, no OTH1",7
same,efficacy TRZVX,[2]; [5],16
same,efficacy TRZVX,"[2]; 100 g a.e./ha, no OTH1",27
same,efficacy TRZVX,[2]; [6],19
same,efficacy TRZVX,"[2]; 200 g a.e./ha, no OTH1",46
same,efficacy TRZVX,[2]; [7],47
same,efficacy ABUTH,"[1]; 30 g a.e./ha, no OTH1",5
same,efficacy ABUTH,[1]; [4],10
same,efficacy ABUTH,"[1]; 70 g a.e./ha, no OTH1",15
same,efficacy ABUTH,[1]; [5],30
same,efficacy ABUTH,"[1]; 100 g a.e./ha, no OTH1",20
same,efficacy ABUTH,[1]; [6],41
same,efficacy ABUTH,"[1]; 200 g a.e./ha, no OTH1",32
same,efficacy ABUTH,[1]; [7],57
same,efficacy ECHCF,"[3]; 30 g a.e./ha, no OTH1",19
same,efficacy ECHCF,[3]; [4],11
same,efficacy ECHCF,"[3]; 70 g a.e./ha, no OTH1",33
same,efficacy ECHCF,[3]; [5],24
same,efficacy ECHCF,"[3]; 100 g a.e./ha, no OTH1",43
same,efficacy ECHCF,[3]; [6],33
same,efficacy ECHCF,"[3]; 200 g a.e./ha, no OTH1",46
same,efficacy ECHCF,[3]; [7],50
CN(C)C(=O)Nc1ccc(Cl)c(Cl)c1 [diuron],inhibition at 75 g/ha,[1]; OTH1 1 % v/v,0%
same,inhibition at 75 g/ha,"[1]; no OTH22, no OTH1",0%
same,inhibition at 100 g/ha,"[1]; 100 g a.e./ha, OTH1 1 % v/v",0%
same,inhibition at 100 g/ha,[1]; [8],0%
same,inhibition at 150 g/ha,[1]; OTH1 1 % v/v,2%
same,inhibition at 150 g/ha,"[1]; no OTH22, no OTH1",5%
same,inhibition at 200 g/ha,"[1]; 200 g a.e./ha, OTH1 1 % v/v",10%
same,inhibition at 200 g/ha,[1]; [9],17%
same,inhibition at 75 g/ha,[3]; OTH1 1 % v/v,0%
same,inhibition at 75 g/ha,"[3]; no OTH22, no OTH1",0%
same,inhibition at 100 g/ha,"[3]; 100 g a.e./ha, OTH1 1 % v/v",0%
same,inhibition at 100 g/ha,[3]; [8],0%
same,inhibition at 150 g/ha,[3]; OTH1 1 % v/v,0%
same,inhibition at 150 g/ha,"[3]; no OTH22, no OTH1",0%
same,inhibition at 200 g/ha,"[3]; 200 g a.e./ha, OTH1 1 % v/v",0%
same,inhibition at 200 g/ha,[3]; [9],0%
